Assay results: article PMC10058583, “Development of Novel Fluorinated Polyphenols as Selective Inhibitors of DYRK1A/B Kinase for Treatment of Neuroinflammatory Diseases including Parkinson’s Disease” (Pharmaceuticals, 2023)

Assays:
[1] = target: T1, 6xHis-tagged rat-truncated DYRK1A (residues 1-497) (Rattus norvegicus, UniProt Q63470); experiment: ELISA-based non-radioactive kinase assay, DYRK1A; assay type: biochemical; conditions: read-out: DYRK1A IC50
T1 construct: 6xHis-tagged rat-truncated DYRK1A (residues 1-497); 6xHis; made in house

[2] = target: T2, human DYRK1B isoform p65 (GST fusion) (Homo sapiens, UniProt Q9Y463); experiment: ELISA-based non-radioactive kinase assay, DYRK1B; assay type: biochemical; conditions: 30 ng GST-DYRK1B, 60 min reaction
T2 construct: made in house
Method: (§1) DYRK1B was prepared from human DYRK1B isoform p65 as glutathione S-transferase fusion protein, and DYRK2 was prepared from human DYRK2 isoform 1 as 6xHis-tagged protein, as previously described.
(§2) For DYRK2, the reactions were performed exactly as described for DYRK1A. For DYRK1B, the assays were similarly conducted but with 30 ng GST-DYRK1B and a kinase reaction time of 60 min.

[3] = target: T3, human DYRK2 isoform 1 (6xHis-tagged) (Homo sapiens, UniProt Q92630); experiment: ELISA-based non-radioactive kinase assay, DYRK2; assay type: biochemical
T3 sequence (Q92630 74-601 limits assumed): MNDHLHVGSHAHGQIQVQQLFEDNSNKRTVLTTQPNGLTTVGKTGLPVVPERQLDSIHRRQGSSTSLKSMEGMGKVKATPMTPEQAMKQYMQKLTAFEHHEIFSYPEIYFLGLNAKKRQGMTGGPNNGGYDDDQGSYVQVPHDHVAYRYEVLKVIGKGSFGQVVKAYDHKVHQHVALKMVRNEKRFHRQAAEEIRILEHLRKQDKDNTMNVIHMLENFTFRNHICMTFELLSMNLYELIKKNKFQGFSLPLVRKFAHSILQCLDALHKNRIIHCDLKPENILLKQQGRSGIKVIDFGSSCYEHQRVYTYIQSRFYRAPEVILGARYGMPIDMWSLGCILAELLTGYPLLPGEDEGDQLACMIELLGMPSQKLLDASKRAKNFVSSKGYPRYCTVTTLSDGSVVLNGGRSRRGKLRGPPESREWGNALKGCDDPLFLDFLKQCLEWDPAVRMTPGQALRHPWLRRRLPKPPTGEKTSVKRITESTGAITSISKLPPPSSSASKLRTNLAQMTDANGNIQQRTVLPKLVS
Method: as §1, §2

[4] = system: LPS-induced inflammation in C57BL/6J mice; experiment: LPS-induced inflammation model; assay type: in vivo, mouse
Method: Neuroinflammation is an important factor contributing to cognitive impairment and neurodegenerative diseases such as PD, and the administration of LPS is frequently used to study neuroinflammation-associated diseases in mice.
Each group consisted of six male mice. […] Animals were pretreated for 3 days with the drug of choice; then, treatment with LPS commenced on day 0, and on the 5th day of LPS treatment, the drug was administered half an hour before LPS injection. One hour after LPS treatment, the animals were anesthetized with a mixture of ketamine, xylazine 2%, atropine, and saline (4:2.5:1:2.5). The body temperature of mice under anesthesia was maintained by applying a heating blanket and monitored using a rectal thermometer. After anesthesia, the animals underwent cardiac perfusion with ice-cold saline for three minutes (3 mL/minute via peristaltic pump) via the left ventricle. The right atrium was cut as an outflow route. The right hemisphere was post-fixed overnight in 4% PFA in PBS at 4 °C and stored in 1xPBS containing 0.1% (v/w) sodium azide at 4 °C. The left hemisphere, hippocampus, cortex, midbrain, and brainstem were microdissected, immersed in liquid nitrogen in separate tubes (with one-fifth of the rest of the brain tissue), and stored in microfuge tubes at −80°. TNFα (in both plasma and the hippocampus) was analyzed with ELISA, and the p-tau (AT-8 antibody) level was recorded in the hippocampus and cortex with WB.

[5] = PO 30 mg/kg BID, from 3 days before LPS (i.p. 750 µg/kg, 5 days)

T2 sequence (Q9Y463 1-589 isoform Q9Y463-2): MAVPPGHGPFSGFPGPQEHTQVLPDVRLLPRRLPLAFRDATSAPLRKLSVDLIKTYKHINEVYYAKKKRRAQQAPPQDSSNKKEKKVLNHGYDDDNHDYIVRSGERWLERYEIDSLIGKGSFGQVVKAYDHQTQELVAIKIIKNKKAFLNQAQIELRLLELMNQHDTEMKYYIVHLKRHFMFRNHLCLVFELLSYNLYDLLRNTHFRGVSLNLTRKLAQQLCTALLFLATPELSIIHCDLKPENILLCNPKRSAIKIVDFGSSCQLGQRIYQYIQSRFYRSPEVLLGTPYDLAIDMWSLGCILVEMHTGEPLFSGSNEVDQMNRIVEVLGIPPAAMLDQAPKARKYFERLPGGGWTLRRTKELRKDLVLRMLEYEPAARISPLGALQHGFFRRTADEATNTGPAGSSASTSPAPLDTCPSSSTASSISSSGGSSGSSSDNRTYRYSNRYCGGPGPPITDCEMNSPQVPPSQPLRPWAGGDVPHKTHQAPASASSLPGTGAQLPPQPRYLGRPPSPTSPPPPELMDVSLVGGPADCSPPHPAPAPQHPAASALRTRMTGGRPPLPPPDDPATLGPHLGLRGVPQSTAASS

IC50 [1]: 73 nM
IC50 [2]: 79 nM
IC50 [3]: 331 nM
SMILES: COc1cc(C(=O)O[C@@H]2Cc3c(O)cc(O)cc3O[C@H]2c2cc(O)c(O)c(O)c2)c(F)c(O)c1O [Compound 1c]
inhibition of tau phosphorylation ([4]; IN 30 mg/kg BID, LPS i.p. 750 µg/kg): lack of efficacy
tau phosphorylation in the hippocampus ([4]; PO 30 mg/kg BID, LPS i.p. 750 µg/kg): reduced tau phosphorylation
TNFα accumulation in plasma [4, 5]: significantly (p < 0.05) decreasing
TNFα accumulation in the brain [4, 5]: significantly (p < 0.05) decreasing
